Test results as given in patent publication US20040138278A1, “Use of AT1 receptor antagonists for prevention of subsequent strokes” (Solvay Pharmaceuticals GmbH, priority 2002, published 2004).

Experiments:
[1] = test system: hypertensive and nonhypertensive stroke patients; settings: cited from earlier work
[2] = test system: hypertensive patients after cerebral ischemia, transitory ischemic attack or intracerebral hemorrhage; assay: Prospective, randomized clinical study (PROBE design) of eprosartan versus nitrendipine for prevention of subsequent strokes, interim report; type: in vivo, human; settings: for incidence of subsequent cerebrovascular events / number of subsequent cerebrovascular events: interim report, 179 patients eprosartan group, 158 patients nitrendipine group, average observation period 18.4 / 18.3 months; for number of subsequent cerebrovascular events: start 600 mg eprosartan once daily or 10 mg nitrendipine q.d.
Source text: A clinical study is currently being conducted on 1369 patients, investigating the suitability of antihypertensive agents of various pharmacological classes to reduce a patient's risk of suffering a subsequent stroke.
Of the 1369 patients (male/female), 691 patients received the AT1-receptor antagonist eprosartan (as eprosartan mesylate); 678 of the 1369 patients received the calcium antagonist nitrendipine.
The study is being conducted as a prospective, randomized, controlled and multicentric study and corresponds to the PROBE design (=prospective, randomized, open-blinded endpoint). The primary target criterion is the evaluation of the total mortality and the total number of cardiovascular and cerebrovascular events (strokes) in the sense of this invention.
The subsequent efficacy parameter is the change in mental abilities (evaluated on the basis of neurological findings, Barthel index and Rankin scale). In addition, the change in the average blood pressure over a period of time is evaluated in measurements performed on the patients sitting down in the office as well as in ambulatory 24-hour blood pressure measurements.
The study begins within 24 months after the occurrence of cerebral ischemia or an intracerebral hemorrhage in a patient. The patients are observed for up to four years. The essential prerequisite for including a patient in the study is hypertension requiring treatment and the condition following a cerebral ischemia, a transitory ischemic attack or an intracerebral hemorrhage within the last 24 months. Essential exclusion criteria include an occlusion or stenosis of greater than 70% of the internal carotid artery (ICA), manifest cardiac insufficiency (NYHY [sic; NYHA] class III-IV), age of patient greater than 85 years at the time of the cerebrovascular event, anticoagulant therapy for a patient because of cardiac arrhythmia, high-grade aortic or mitral valve stenosis, unstable angina pectoris or a known hypersensitivity to AT1-receptor antagonists or calcium antagonists of the dihyropyridine type or chemically related substances.
After inclusion in the study, the patients begin the randomized treatment phase with eprosartan or nitrendipine. Depending on the blood pressure readings and patient-specific criteria, treatment begins with 600 mg eprosartan once daily or 10 mg nitrendipine q.d. For long-term therapy, a diastolic blood pressure of less than 90 mmHg sitting down and a systolic blood pressure of less than 140 mmHg are the goals. For the 24-hour blood pressure measurements, a daily average of less than or equal to 135/85 mmHg is the goal. If additional antihypertensive therapy is necessary, conventional recognized criteria such as those recommended by the German Hypertension League are followed in the combination therapy. Combination therapy with ACE inhibitors, AT1-receptor antagonists or calcium antagonists should not be used.
Study end points (target criteria) are transmitted immediately to the central study office, where they are treated as open-blind results with respect to the medication and then forwarded to the End Point Committee. The committee performs the evaluation and classification of the findings with regard to a cardiovascular or cerebrovascular end point.
In an interim report on this study, the data on a total of 337 of the participating patients has been evaluated; 179 of these 337 patients received eprosartan (eprosartan group) and 158 of these 337 patients received nitrendipine (nitrendipine group). […]

SMILES	blood pressure of patients ([1]; hypertensive group)	risk of suffering a subsequent stroke ([1]; subgroup of hypertensive patients, versus placebo patient group)	incidence of subsequent cerebrovascular events [2] [%]	number of subsequent cerebrovascular events [2]	reduction in a patient's risk of having a subsequent stroke ([2]; monotherapy, conclusion from the interim clinical findings)
CCC[C@H](N[C@@H](C)C(=O)N1[C@H](C(=O)O)C[C@@H]2CCCC[C@@H]21)C(=O)OCC [ACE monotherapy, perindopril]	lowered to a comparable extent	did not differ from the corresponding risk in the placebo patient group	–	–	–
CCCCc1ncc(/C=C(\Cc2cccs2)C(=O)O)n1Cc1ccc(C(=O)O)cc1.CS(=O)(=O)O [eprosartan, (E)-α-[[2-butyl-1-[(4-carboxyphenyl)methyl]-1H-imidazol-5-yl]-methylene]-2-thiophenepropanoic acid monomethanesulfonate]	–	–	8.4	15	significant reduction
CCOC(=O)C1=C(C)NC(C)=C(C(=O)OC)C1c1cccc([N+](=O)[O-])c1 (stereo not shown) [nitrendipine]	–	–	13.9	22	–
